# ChEMBL document CHEMBL4004878, “Design, synthesis and structure-bactericidal activity relationships of novel 9-oxime ketolides and reductive epimers of acylides” (2017)
# Tests used:
# Type in all cases: functional
# Streptococcus pneumoniae [1] = test: Bacteriostatic activity against […] Streptococcus pneumoniae ATCC 49619 after 20 to 24 hrs by two-fold microbroth dilution method
# Streptococcus pyogenes [2] = test: Ratio of MBC to MIC for Streptococcus pyogenes 01-968 expressing inducible ermA
# Streptococcus pneumoniae [3] = test: Bactericidal activity against […] Streptococcus pneumoniae ATCC 49619 incubated for 20 to 24 hrs followed by sub-culturing for 24 hrs in absence of compound
# Haemophilus influenzae [4] = test: Bacteriostatic activity against azithromycin-susceptible/ampicillin-resistant Haemophilus influenzae 11P307 after 20 to 24 hrs by two-fold microbroth dilution method
# Streptococcus pyogenes [5] = test: Bacteriostatic activity against Streptococcus pyogenes 12-207 expressing mef after 20 to 24 hrs by two-fold microbroth dilution method
# Streptococcus pyogenes [6] = test: Ratio of MBC to MIC for Streptococcus pyogenes 12-207 expressing mef
# Moraxella catarrhalis [7] = test: Bactericidal activity against erythromycin-susceptible Moraxella catarrhalis 11B366 incubated for 20 hrs followed by sub-culturing for 24 hrs in absence of compound
# Moraxella catarrhalis [8] = test: Bacteriostatic activity against erythromycin-susceptible Moraxella catarrhalis 11B366 after 20 hrs by two-fold microbroth dilution method; conditions: 11B366, 20 h
# Streptococcus pyogenes [9] = test: Bacteriostatic activity against Streptococcus pyogenes 01-968 expressing inducible ermA after 20 to 24 hrs by two-fold microbroth dilution method
# Staphylococcus aureus [10] = test: Bacteriostatic activity against methicillin-resistant Staphylococcus aureus PU20 expressing constitutive ermC after 20 hrs by two-fold microbroth dilution method; conditions: PU20, 20 h
# Staphylococcus aureus [11] = test: Bactericidal activity against methicillin-resistant Staphylococcus aureus PU32 expressing inducible ermA incubated for 20 hrs followed by sub-culturing for 24 hrs in absence of compound
# Moraxella catarrhalis [12] = test: Ratio of MBC to MIC against erythromycin-susceptible Moraxella catarrhalis 11B366
# Streptococcus pyogenes [13] = test: Bactericidal activity against Streptococcus pyogenes 01-968 expressing inducible ermA incubated for 20 to 24 hrs followed by sub-culturing for 24 hrs in absence of compound
# Streptococcus pyogenes [14] = test: Bactericidal activity against Streptococcus pyogenes 12-207 expressing mef incubated for 20 to 24 hrs followed by sub-culturing for 24 hrs in absence of compound
# Haemophilus influenzae [15] = test: Ratio of MBC to MIC for azithromycin susceptible/ampicillin-resistant Haemophilus influenzae 11P307
# Staphylococcus aureus [16] = test: Ratio of MBC to MIC against methicillin-resistant Staphylococcus aureus PU32 expressing inducible ermA
# Streptococcus pneumoniae [17] = test: Ratio of MBC to MIC for penicillin-susceptible Streptococcus pneumoniae PU09
# Haemophilus influenzae [18] = test: Bactericidal activity against azithromycin susceptible/ampicillin-resistant Haemophilus influenzae 11P307 incubated for 20 to 24 hrs followed by sub-culturing for 24 hrs in absence of compound
# Streptococcus pneumoniae [19] = test: Bacteriostatic activity against penicillin-susceptible Streptococcus pneumoniae PU09 after 20 to 24 hrs by two-fold microbroth dilution method
# Staphylococcus aureus [20] = test: Bacteriostatic activity against methicillin-resistant Staphylococcus aureus PU32 expressing inducible ermA after 20 hrs by two-fold microbroth dilution method; conditions: PU32, 20 h
# Streptococcus pneumoniae [21] = test: Bactericidal activity against penicillin-susceptible Streptococcus pneumoniae PU09 incubated for 20 to 24 hrs followed by sub-culturing for 24 hrs in absence of compound
# Streptococcus pneumoniae [22] = test: Ratio of MBC to MIC for […] Streptococcus pneumoniae ATCC 49619
# Staphylococcus aureus [23] = test: Bactericidal activity against methicillin-resistant Staphylococcus aureus PU20 expressing constitutive ermC incubated for 20 hrs followed by sub-culturing for 24 hrs in absence of compound
# Moraxella catarrhalis [24] = test: Ratio of MBC to MIC against erythromycin-susceptible Moraxella catarrhalis 13L332
# Moraxella catarrhalis [25] = test: Bactericidal activity against erythromycin-susceptible Moraxella catarrhalis 13L332 incubated for 20 hrs followed by sub-culturing for 24 hrs in absence of compound
# Moraxella catarrhalis [26] = test: Bacteriostatic activity against erythromycin-susceptible Moraxella catarrhalis 13L332 after 20 hrs by two-fold microbroth dilution method; conditions: 13L332, 20 h
# Staphylococcus aureus [27] = test: Ratio of MBC to MIC for methicillin-resistant Staphylococcus aureus PU20 expressing constitutive ermC
Compound,MIC (Streptococcus pneumoniae [1]) [mg/L],Ratio (Streptococcus pyogenes [2]),MBC (Streptococcus pneumoniae [3]) [mg/L],MIC (Haemophilus influenzae [4]) [mg/L],MIC (Streptococcus pyogenes [5]) [mg/L],Ratio (Streptococcus pyogenes [6]),MBC (Moraxella catarrhalis [7]) [mg/L],MIC (Streptococcus pyogenes [9]) [mg/L],MIC (Staphylococcus aureus [10]) [mg/L],MBC (Staphylococcus aureus [11]) [mg/L],MBC (Streptococcus pyogenes [13]) [mg/L],Ratio (Staphylococcus aureus [16]),Ratio (Streptococcus pneumoniae [17]),MIC (Streptococcus pneumoniae [19]) [mg/L],MIC (Staphylococcus aureus [20]) [mg/L],MBC (Streptococcus pneumoniae [21]) [mg/L],Ratio (Streptococcus pneumoniae [22]),MBC (Staphylococcus aureus [23]) [mg/L],MBC (Moraxella catarrhalis [25]) [mg/L],MIC (Moraxella catarrhalis [26]) [mg/L],also measured
C=CCN(C)[C@H]1C[C@@H](C)O[C@@H](O[C@@H]2[C@@H](C)C(=O)[C@@H](C)C(=O)O[C@H](CC)[C@@]3(C)OC(=O)O[C@@H]3[C@@H](C)/C(=N/OC/C=C/c3cnc4ccccc4c3)[C@H](C)C[C@@]2(C)OC)[C@@H]1O,0.062,8,0.25,32,0.25,4,16,0.5,> 256,> 16,4,>8,1,0.5,2,0.5,4,,,,MIC (Moraxella catarrhalis [8]): 8 mg/L; Ratio (Moraxella catarrhalis [12]): 2; MBC (Streptococcus pyogenes [14]): 1 mg/L; Ratio (Haemophilus influenzae [15]): >8; MBC (Haemophilus influenzae [18]): > 256 mg/L
CC[C@H]1OC(=O)[C@H](C)[C@H](OC(=O)Cc2ccccn2)[C@H](C)[C@@H](O[C@@H]2O[C@H](C)C[C@H](N(C)C)[C@H]2O)[C@@](C)(OC/C=C/c2cnc3ccccc3c2)C[C@@H](C)/C(=N\O)[C@H](C)[C@H]2OC(=O)O[C@@]21C,4,8,16,,,,,8,256,> 256,64,>4,2,8,64,16,4,> 256,> 4,0.5,Ratio (Moraxella catarrhalis [24]): >8
C#CCN(C)[C@H]1C[C@@H](C)O[C@@H](O[C@@H]2[C@@H](C)C(=O)[C@@H](C)C(=O)O[C@H](CC)[C@@]3(C)OC(=O)O[C@@H]3[C@@H](C)/C(=N/OC/C=C/c3cnc4ccccc4c3)[C@H](C)C[C@@]2(C)OC)[C@@H]1O,0.25,>8,1,> 256,1,>8,> 256,0.5,> 256,> 16,> 4,,4,1,16,4,,,,,MIC (Moraxella catarrhalis [8]): 32 mg/L; Ratio (Moraxella catarrhalis [12]): >8; MBC (Streptococcus pyogenes [14]): > 8 mg/L
CC[C@H]1OC(=O)[C@H](C)[C@H](OC(=O)c2ccccn2)[C@H](C)[C@@H](O[C@@H]2O[C@H](C)C[C@H](N(C)C)[C@H]2O)[C@](C)(OC)C[C@@H](C)/C(=N\OC)[C@H](C)[C@H]2OC(=O)O[C@@]21C,64,,> 64,,,,,> 64,> 256,> 256,> 64,,,64,> 256,> 64,,> 256,> 64,32,
CC[C@H]1OC(=O)[C@H](C)[C@H](OC(=O)Cc2ccccn2)[C@H](C)[C@@H](O[C@@H]2O[C@H](C)C[C@H](N(C)C)[C@H]2O)[C@](C)(OC)C[C@@H](C)/C(=N\OC)[C@H](C)[C@H]2OC(=O)O[C@@]21C,> 64,,> 64,,,,,> 64,> 256,> 256,> 64,,,32,> 256,> 64,,> 256,> 64,32,
CC[C@H]1OC(=O)[C@@](C)(F)[C@H](OC(=O)Cc2ccccn2)[C@H](C)[C@@H](O[C@@H]2O[C@H](C)C[C@H](N(C)C)[C@H]2O)[C@](C)(OC)C[C@@H](C)/C(=N\OC)[C@H](C)[C@H]2OC(=O)O[C@@]21C,64,,64,,,,,64,> 256,> 256,> 64,,,32,> 256,> 64,1,> 256,64,32,Ratio (Moraxella catarrhalis [24]): 2
CC[C@H]1OC(=O)[C@@](C)(F)C(=O)[C@H](C)[C@@H](O[C@@H]2O[C@H](C)C[C@H](N(C)C)[C@H]2O)[C@](C)(OC)C[C@@H](C)/C(=N\OC/C=C/c2cnc3ccccc3c2)[C@H](C)[C@H]2OC(=O)O[C@@]21C,≤ 0.008,8,0.062,8,0.062,>8,2,0.25,64,> 16,2,>8,2,0.5,2,1,>=8,256,,,Ratio (Staphylococcus aureus [27]): 4; MIC (Moraxella catarrhalis [8]): 2 mg/L; Ratio (Moraxella catarrhalis [12]): 1; MBC (Streptococcus pyogenes [14]): > 0.5 mg/L; Ratio (Haemophilus influenzae [15]): >8; MBC (Haemophilus influenzae [18]): > 64 mg/L
CC[C@H]1OC(=O)[C@H](C)[C@@H](OC(=O)Cc2ccccn2)[C@H](C)[C@@H](O[C@@H]2O[C@H](C)C[C@H](N(C)C)[C@H]2O)[C@](C)(OC)C[C@@H](C)/C(=N\OC)[C@H](C)[C@H]2OC(=O)O[C@@]21C,0.125,8,0.25,,,,,0.25,> 256,> 32,2,>8,2,0.5,4,1,,> 256,> 2,0.25,Ratio (Moraxella catarrhalis [24]): >8
CC[C@H]1OC(=O)[C@@](C)(F)C(=O)[C@H](C)[C@@H](O[C@@H]2O[C@H](C)C[C@H](N(C)C)[C@H]2O)[C@](C)(OC)C[C@@H](C)/C(=N\OCC#Cc2cncc3ccccc23)[C@H](C)[C@H]2OC(=O)O[C@@]21C,≤ 0.008,>8,0.031,8,0.031,>8,2,0.062,32,> 8,> 0.5,>8,4,0.25,1,1,>=4,128,,,Ratio (Staphylococcus aureus [27]): 4; MIC (Moraxella catarrhalis [8]): 1 mg/L; Ratio (Moraxella catarrhalis [12]): 2; MBC (Streptococcus pyogenes [14]): > 0.25 mg/L; Ratio (Haemophilus influenzae [15]): >8; MBC (Haemophilus influenzae [18]): > 64 mg/L
CC[C@H]1OC(=O)[C@@](C)(F)C(=O)[C@H](C)[C@@H](O[C@@H]2O[C@H](C)C[C@H](N(C)C)[C@H]2O)[C@](C)(OC)C[C@@H](C)/C(=N\OC/C=C/c2ccc3ncccc3c2)[C@H](C)[C@H]2OC(=O)O[C@@]21C,≤ 0.008,4,0.016,8,0.062,>8,2,0.25,32,> 8,1,>8,2,0.5,1,1,>=2,64,,,Ratio (Staphylococcus aureus [27]): 2; MIC (Moraxella catarrhalis [8]): 2 mg/L; Ratio (Moraxella catarrhalis [12]): 1; MBC (Streptococcus pyogenes [14]): > 0.5 mg/L; Ratio (Haemophilus influenzae [15]): >8; MBC (Haemophilus influenzae [18]): > 64 mg/L
CC[C@H]1OC(=O)[C@H](C)[C@@H](OC(=O)Cc2ccccn2)[C@H](C)[C@@H](O[C@@H]2O[C@H](C)C[C@H](N(C)C)[C@H]2O)[C@](C)(OC)C[C@@H](C)/C(=N\OC/C=C/c2cccnc2)[C@H](C)[C@H]2OC(=O)O[C@@]21C,16,,> 64,,,,,64,> 256,> 256,> 64,,>8,8,256,> 64,>4,> 256,64,32,Ratio (Moraxella catarrhalis [24]): 2
